Assay [1] has as its system PC-3. In words: Induction of apoptosis in human PC-3 cells assessed as viable cells at 12.5 uM by Annexin V-FITC staining based flow cytometry (reference value: 94.9%). Type of assay: functional. To be noted: read-out: Activity. Background: In flow cytometry, cells or beads pass a laser one at a time.
In assay [2] the test system is PC-3. In words: Induction of apoptosis in human PC-3 cells assessed as late apoptotic cells at 2.5 uM by Annexin V-FITC staining based flow cytometry (reference value: 1.93%). Type of assay: functional.

SMILES strings stand for the structures.

As to `COc1cc2ncnc(N[C@H](C)c3cccc(F)c3)c2cc1OC1CCOCC1`, the viability at 12.5 µM in the assay on PC-3 [1] came out at 74.3%. Also, the Activity in the assay with PC-3 [2] stood at 3.36%.

(Values after ChEMBL document CHEMBL5543153, “Discovery of a Potent Dual Son of Sevenless 1 (SOS1) and Epidermal Growth Factor Receptor (EGFR) Inhibitor for the Treatment of Prostate Cancer” (J Med Chem, 2024).)
